Data: patent US10201556B2, “Combination for use in treating diseases or conditions associated with melanoma, or treating diseases or conditions associated with activated B-raf pathway” (InteRNA Technologies B.V., priority 2012, dated 2019)
Like-named read-outs stand apart in the source and are kept apart here.

How the values were obtained:
3′UTR of ERK1 = assay: 3′UTR Luciferase assay in HeLa cells; format: cell-based; details: 10 nM mimic, 24 hrs
Protocol: The 3′UTR sequences (Table 11) were synthesized by IDT Technologies, and cloned into psiCHECK™-2 (Promega). HeLa cells (5×10^4) were seeded in 24-well plates, and the next day transfected with 100 ng/well 3′UTR psiCHECK™-2 construct and 10 nM miR-3157 mimics, or control miRNA using Lipofectamine 2000 Transfection Reagent (Invitrogen). After 24 hrs cells were lysed using Passive Lysis Buffer and luciferase activity was measured using the Dual-Luciferase Reporter Assay System (Promega) and the Glomax-Multi Detection system (Promega) in a 96-well format according to the manufacturer's protocol. The Renilla luciferase signal was normalized to background Firefly luciferase, and changes in Renilla luciferase activity in the miR-3157 transfected cells calculated relative to the Renilla signal in control mimic transfected cells.

phospho-ERK1/2 = details: cited from earlier work
[1] = system: SKMEL-28 melanoma cell line; assay: Anti-proliferative effect of small molecules, MTS assay; format: cell-based; details: Homo sapiens, SK-MEL-28, SKMEL-28, vemurafenib sensitive
Protocol: (§1) The anti-proliferative effect of small molecules in melanoma cell lines was determined with V600E BRAF inhibitor, vemurafenib (PLX-4032, 51267, Selleck) and MEK inhibitor, selumetinib (AZD-6244, S1008, Selleck). For each cell line optimal growth conditions were determined prior to the experiment. Cells were plated in a 96-well plate at 3000 cells per well (100 uL) and were grown at 37 C, 5% CO2. Small molecule mix (50 uL per well) was made for each concentration in medium. Cells were treated in triplicate 24 hours after plating. After 72 hours medium was replaced and viability was measured with the MTS assay (Promega) according to manufacturer's instructions. Cell viability inhibition is normalized against loading control (0.1% DMSO) and GraphPad Prism was used to fit the curve and calculate GI50 values.
(§2) A375 cells were obtained from the Hubrecht Institute (Utrecht, The Netherlands); SKMEL-28, A2058 and RPMI-7951 were from the ATCC; SKMEL-57 was a gift from Dr. Patricia Groenen (Radboud University Nijmegen Medical Centre, The Netherlands); for cell line characteristics of M249, M249-AR4, M233 and M376 see (Atefi et al. 2011). A375-R, with in vitro acquired resistance to vemurafenib, was established in our lab by clonal selection of cells continually exposed to 1 μM vemurafenib. A375, A375-R, SKMEL-28, A2058 and SKMEL-57 were grown in DMEM GlutaMAX™-I (Gibco®), all other cell lines in RPMI-1640 (Gibco®). Media was supplemented with 10% FBS (Sigma), and cells were maintained in a humidified 37° C. incubator (Thermo Scientific) with 5% CO2. Vemurafenib (PLX4032; Selleck Chemicals) was diluted in DMSO to a stock concentration of 10 mM.

[2] = system: SKMEL-57 melanoma cell line; assay: as above; format: cell-based; details: SKMEL-57, vemurafenib sensitive
Protocol: as §1, §2

M376 melanoma cell line = assay: as above; format: cell-based; details: M376, in vivo acquired resistance
Protocol: as §1, §2

M233 melanoma cell line = assay: as above; format: cell-based; details: M233, vemurafenib resistant
Protocol: as §1, §2

| Compound | luciferase activity, ERK1 3′UTR with mutated miR-3157 binding site (3′UTR of ERK1) | luciferase activity, ERK1 3′UTR unmodified (3′UTR of ERK1; relative to control mimic) | pERK (phospho-ERK1/2; A375, A2058 and M249 (Atefi et al. 2011, Nazarian et al. 2010)) | pERK (phospho-ERK1/2; M249-AR4 and M376 (Atefi et al. 2011, Nazarian et al. 2010)) | GI50 [1] | GI50 [2] | GI50 (M376 melanoma cell line) | GI50 (M233 melanoma cell line) |
| --- | --- | --- | --- | --- | --- | --- | --- | --- |
| hsa-miR-3157-5p: mature miRNA mimic, SEQ ID NO 6 UUCAGCCAGGCUAGUGCAGUCU (listed as RNA, chemistry not given here) | remained unaffected | reduced luciferase activity | – | – | – | – | – | – |
| CCCS(=O)(=O)Nc1ccc(F)c(C(=O)c2c[nH]c3ncc(-c4ccc(Cl)cc4)cc23)c1F [Vemurafenib, N-(3-{[5-(4-chlorophenyl)-1H-pyrrolo[2,3-b]pyridin-3-yl]carbonyl}-2,4-difluorophenyl)propane-1-sulfonamide] | – | – | downregulates | not | ~600 nM | ~800 nM | > 10000 nM | > 10000 nM |
